{"source": "patent US20030170643A1", "about": "“Regulation of apoB treatment and drug screening for cardiovascular and metabolic disorders or syndromes” (priority 1999, published 2003)", "target": "T1, MTP (Rattus norvegicus, UniProt D4A1W8)", "T1 construct": "endogenous in cells; host or cells: rat primary hepatocytes (male Sprague-Dawley), cell lysate", "T1 sequence (D4A1W8 22-896)": "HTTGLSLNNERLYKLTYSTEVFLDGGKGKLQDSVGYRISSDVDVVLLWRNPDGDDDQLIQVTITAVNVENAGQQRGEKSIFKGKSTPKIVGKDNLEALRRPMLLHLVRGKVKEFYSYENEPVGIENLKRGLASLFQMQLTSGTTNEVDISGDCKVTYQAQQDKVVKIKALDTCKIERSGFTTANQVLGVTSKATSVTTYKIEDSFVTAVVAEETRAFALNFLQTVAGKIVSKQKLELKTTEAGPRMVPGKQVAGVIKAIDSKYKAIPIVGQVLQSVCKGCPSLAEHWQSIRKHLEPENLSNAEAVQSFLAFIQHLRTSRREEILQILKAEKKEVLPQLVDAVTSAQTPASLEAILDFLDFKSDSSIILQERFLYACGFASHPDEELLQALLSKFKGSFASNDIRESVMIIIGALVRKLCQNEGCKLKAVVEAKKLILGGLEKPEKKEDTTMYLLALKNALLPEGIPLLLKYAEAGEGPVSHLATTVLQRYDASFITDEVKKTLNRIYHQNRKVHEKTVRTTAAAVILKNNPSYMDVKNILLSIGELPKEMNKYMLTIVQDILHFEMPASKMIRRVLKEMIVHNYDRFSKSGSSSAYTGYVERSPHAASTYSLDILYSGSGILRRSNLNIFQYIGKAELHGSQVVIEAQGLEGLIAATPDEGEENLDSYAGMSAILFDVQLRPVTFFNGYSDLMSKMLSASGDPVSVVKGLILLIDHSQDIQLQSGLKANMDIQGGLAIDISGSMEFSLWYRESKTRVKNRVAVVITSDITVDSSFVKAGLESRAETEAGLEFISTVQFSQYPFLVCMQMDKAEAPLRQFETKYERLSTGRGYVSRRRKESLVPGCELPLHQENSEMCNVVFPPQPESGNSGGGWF", "T1 sequence (P04785 20-509 partner)": "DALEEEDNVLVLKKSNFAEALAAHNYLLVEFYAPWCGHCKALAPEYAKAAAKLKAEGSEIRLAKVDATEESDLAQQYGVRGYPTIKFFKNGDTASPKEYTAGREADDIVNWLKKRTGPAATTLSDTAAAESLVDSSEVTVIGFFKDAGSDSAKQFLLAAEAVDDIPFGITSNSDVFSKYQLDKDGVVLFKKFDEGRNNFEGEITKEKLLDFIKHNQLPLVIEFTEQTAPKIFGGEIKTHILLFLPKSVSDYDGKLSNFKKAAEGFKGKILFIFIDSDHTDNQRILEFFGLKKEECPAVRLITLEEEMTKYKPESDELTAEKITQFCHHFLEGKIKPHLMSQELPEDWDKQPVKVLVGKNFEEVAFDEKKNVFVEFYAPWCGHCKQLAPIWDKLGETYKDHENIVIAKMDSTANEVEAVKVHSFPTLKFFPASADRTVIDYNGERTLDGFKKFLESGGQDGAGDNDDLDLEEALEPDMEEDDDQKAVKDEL", "experiment": "MTP activity in lysates of fatty acid-pretreated rat primary hepatocytes", "type": "biochemical", "details": "hepatocytes pre-treated 6 hr with BSA, OA or EPA", "description": "Three methods were used to assess possible effects of Ω-3 fatty acids on cellular MTP function. First, rat primary hepatocytes were incubated with BSA, OA, or EPA, and then MTP activity in cell lysates was measured using a fluorescent assay (Roar Biomedical, New York, NY). Second, to determine if lipid classes synthesized in the presence of OA or Ω-3 fatty acid are equivalent substrates for MTP, primary rat hepatocytes or HepG2 cells were incubated with tritiated OA or EPA, total cellular lipids were extracted into isopropanol, and biosynthetically labeled cholesteryl ester, triglyceride, and phospholipids were separated by preparative thin layer chromatography. […] Transfer of the labeled lipids to acceptor vesicles in the presence of 50 μg of purified bovine MTP was measured as described in Jamil, H. et al (1995) J Biol Chem 270(12), 6549-54.\nFirst, it was necessary to test the possibility that Ω-3 fatty acids stimulate apob degradation by impeding MTP-dependent early lipidation, thereby targeting apoB to proteasomes. Rat primary hepatocytes were pre-treated for 6 hr with BSA, OA, or EPA, and then the MTP activity in lysates of these cells was assessed using artificial donor and acceptor vesicles, with [^14C]triolein as the MTP substrate, as described in Jamil, H. et al. (1995) J Biol Chem 270(12), 6549-54."}
{"smiles": "CCCCCCCC/C=C\\CCCCCCCC(=O)O", "note": "[OA, oleic acid]", "values": [{"measurement": "MTP-mediated transfer of labeled triolein in cell lysates", "result": "No difference"}]}
